Read-outs that look alike come from different tables or passages of the source. Marks after values point to notes of the source that are not given here.
Tests used:
HT-22 neuronal cell line = assay: Viability of HT-22 neuronal cell line without damaging factors (MTT test); assay type: cell-based, mouse; conditions: added at plating and every 24 h for 10 days, control 0.283 ± 0.039
Method: The rat adrenal […] pheochromocytoma cell line PC12 was obtained from the Cell Culture Museum, RAN Institute of Molecular Genetics. The immortalized mouse hippocampal cell line HT-22 was a gift from Prof. F. Viegant, Utrecht University, the Netherlands.
The cells were grown in DMEM medium containing 5% FBS and 2 mM L-glutamine. The cells were incubated at 37° C. and 5% CO2. The growth medium was changed at 24 hours after inoculation and every 3 days thereafter. The cells were re-plated every week into culture flasks with a total area of 75 cm^2.
All types of cells were plated in DMEM medium.

[1] = system: rats with photothrombosis of the prefrontal cortex; conditions: 1 mg/kg i.p.
Method: The test substance was administered intraperitoneally at a dose of 1 mg/kg using the following regimen: at 1 h after surgery, at 24 h after the first administration, at 4 days and 6 days after the first administration.
A bilateral focal ischemic infarction of the prefrontal cortex of the rat brain (the Fr1 and Fr2 fields according to the atlas of Paxinos and Watson, 1986) was produced by the photoinduced thrombosis method (Watson et al., 1985). Animals were anesthetized with chloral hydrate (300 mg/kg i.p.). The photosensitive dye Bengal red (Sigma Chemical Co.) was injected into the jugular vein (3% solution, 40 mg/kg). The animal's head was clamped in the stereotaxis device, and the periosteum was removed after a longitudinal incision of the skin.
A light guide (the output light beam diameter 3 mm) was placed at a distance of 1 mm from the skull surface using the following coordinates: 2.00 mm rostral of the bregma and 2.00 mm lateral of the sagittal suture. Cold light illumination (a xenon lamp source, 25 V, 250 W) was carried out for 15 min at either side. […] To assess their functional status, the animals were evaluated for their motor activity (MA) in a RODEO-1 automatic unit with an observation time of 5 min. The MA was analyzed before and at 9 days after the photothrombosis of the prefrontal cortex.

[2] = system: rats with hemorrhagic stroke; conditions: 1 mg/kg
Method: The experiments were carried out on male white outbred rats weighing 220-250 g. […] The local cerebral hemorrhage (post-traumatic intracerebral hemorrhage) as a hemorrhagic stroke (HS) model was produced by the method of Makarenko (Makarenko A. N. et al., Zh. V. N. D. 2002, 52(6), 765-768).
To produce the stroke, rats were anesthetized with chloral hydrate (400 mg/kg i.m.) followed by craniotomy. The cerebral tissue in the region of internal capsule was destroyed followed (in 2-3 min) by the injection of blood (0.02-0.03 ml) taken from under the animal's tongue.
The rats were monitored for 14 days after surgery. Animal's physical condition and behavioral features were recorded at 1, 3, 7 and 14 days.
The animals were distributed into 3 groups. Group 1 comprised sham-operated (SO) rats with craniotomy alone, group 2 comprised animals with HS, and group 3 comprised rats with HS treated with GK-2 (1 mg/kg at 3 h after surgery and every 48 hours thereafter for a total of 6 administrations). Group 1 and group 2 animals were treated with physiological saline in an equivalent volume.
Changes in animals' physical condition and behavior were evaluated by conventional methods. The neurological status was assessed by scoring neurological deficits according to MacGrow's stroke scoring system as modified by I. V. Gannushkina; by the muscle tone and coordination of movements monitoring methods; cognitive function was assessed by the passive avoidance conditioned reflex (PAR); and orientation and exploratory behavior by using the open field test. Also the drug's effect on the survival of rats was monitored.

[3] = system: rats with ischemic cerebral infarction; conditions: 1 mg/kg i.p. x3

SMILES: NCCCC[C@H](NC(=O)[C@H](CCC(=O)O)NC(=O)CCC(=O)O)C(=O)NCCCCCCNC(=O)[C@H](CCCCN)NC(=O)[C@H](CCC(=O)O)NC(=O)CCC(=O)O [GK-2, bis-(N-monosuccinyl-glutamyl-lysine) hexamethylenediamide]
- Optical density (MTT) (HT-22 neuronal cell line; 10^−5M): 0.357 ± 0.051
- Optical density (MTT) (HT-22 neuronal cell line; 10^−8M): 0.375 ± 0.063
- lesion volume (left and right hemispheres, per rat, mean) ([1]; FIG. 2.4): reduced
- protection effectiveness rate (PER) ([1]; PER=(V0−Vs)/V0×100%): 61%
- Number of rats lost within 14 days after HS, total loss, % ([2]; sham 0, stroke 40): 0%
- Number of rats lost within 14 days after HS, total loss, abs. ([2]; sham 0/10, stroke 4/10): 0/10^#
- Latency to entering the dark compartment (burrowing reflex) ([2]; sham 13.3 ± 2.10, stroke 40.2 ± 13.2): 27.9 ± 10.4 s
- Number of rats lost, % ([2]; Day 1, sham 0, stroke 20): 0%
- Number of rats lost, abs. ([2]; Day 1, sham 0/10, stroke 2/10): 0/10
- Number of crossings into open arms ([2]; Day 1, sham 0.9, stroke 0): 1.6 ± 0.4
- Number of crossings into the middle ([2]; Day 1, sham 1.9, stroke 0.25): 1.5 ± 0.4
- Number of crossings into closed arms ([2]; Day 1, sham 2.4, stroke 1.1): 1.9 ± 0.4
- Latency to entering an arm ([2]; Day 1, sham 6.1, stroke 62.8): 4.9 ± 1.05 s
- Length of time spent in open arms ([2]; Day 1, sham 11.6, stroke 0): 51.3 ± 27.9 s
- Length of time spent in the middle ([2]; Day 1, sham 46.8, stroke 95.3): 27.5 ± 7.4 s
- PAR retention: Number of rats entering the dark compartment ([2]; Day 1, sham 60, stroke 100): 60%
- PAR retention: Latency to entering the dark compartment ([2]; Day 1, sham 95.0, stroke 24.5): 85.5 ± 25.9 s
- Length of time spent in closed arms ([2]; Day 1, sham 241.6, stroke 204.8): 221.2 ± 28.5 s
- Number of rats lost, % ([2]; Day 3, sham 0, stroke 0): 0%
- Number of rats lost, abs. ([2]; Day 3, sham 0/10, stroke 0/8): 0/10
- Number of crossings into open arms ([2]; Day 3, sham 0.6, stroke 0.12): 0.8 ± 0.2
- Number of crossings into the middle ([2]; Day 3, sham 0.6, stroke 0.12): 0.5 ± 0.2
- Number of crossings into closed arms ([2]; Day 3, sham 1.4, stroke 0.5): 1.2 ± 0.1
- Latency to entering an arm ([2]; Day 3, sham 5.1, stroke 164.4): 7.1 ± 1.9 s
- Length of time spent in open arms ([2]; Day 3, sham 6.2, stroke 1.3): 10.3 ± 4.4 s
- Length of time spent in the middle ([2]; Day 3, sham 18.6, stroke 165.0): 15.1 ± 4.9 s
- PAR retention: Number of rats entering the dark compartment ([2]; Day 3, sham 70, stroke 100): 60%
- PAR retention: Latency to entering the dark compartment ([2]; Day 3, sham 74.0, stroke 18.3): 88.0 ± 25.8 s
- Length of time spent in closed arms ([2]; Day 3, sham 275.2, stroke 133.7): 274.6 ± 5.7 s
- Number of rats lost, % ([2]; Day 7, sham 0, stroke 12.5): 0%
- Number of rats lost, abs. ([2]; Day 7, sham 0/10, stroke 1/8): 0/10
- Number of crossings into the middle ([2]; Day 7, sham 0.7, stroke 0): 0.8 ± 0.4
- Number of crossings into open arms ([2]; Day 7, sham 1.4, stroke 0.4): 1.1 ± 0.2
- Number of crossings into closed arms ([2]; Day 7, sham 1.4, stroke 1.0): 1.5 ± 0.2
- Latency to entering an arm ([2]; Day 7, sham 3.0, stroke 67.4): 2.5 ± 0.3 s
- Length of time spent in the middle ([2]; Day 7, sham 8.3, stroke 67.4): 8.0 ± 2.2 s
- Length of time spent in open arms ([2]; Day 7, sham 13.3, stroke 8.6): 9.2 ± 1.9 s
- PAR retention: Number of rats entering the dark compartment ([2]; Day 7, sham 50, stroke 100): 80%
- PAR retention: Latency to entering the dark compartment ([2]; Day 7, sham 97.2, stroke 17.6): 45.5 ± 22.5 s
- Length of time spent in closed arms ([2]; Day 7, sham 278.4, stroke 238.3): 283.0 ± 2.9 s
- Number of rats lost, % ([2]; Day 14, sham 0, stroke 14.3): 0%
- Number of rats lost, abs. ([2]; Day 14, sham 0/10, stroke 1/7): 0/10
- Number of crossings into the middle ([2]; Day 14, sham 0.7, stroke 0.2): 1.4 ± 0.3
- Number of crossings into open arms ([2]; Day 14, sham 1.1, stroke 0.2): 1.1 ± 0.3
- Number of crossings into closed arms ([2]; Day 14, sham 1.3, stroke 0.8): 1.6 ± 0.4
- Latency to entering an arm ([2]; Day 14, sham 3.1, stroke 54.3): 2.6 ± 0.4 s
- Length of time spent in the middle ([2]; Day 14, sham 18.1, stroke 57.7): 16.4 ± 8.5 s
- Length of time spent in open arms ([2]; Day 14, sham 29.7, stroke 0.8): 8.8 ± 2.3 s
- PAR retention: Number of rats entering the dark compartment ([2]; Day 14, sham 60, stroke 100): 90%
- PAR retention: Latency to entering the dark compartment ([2]; Day 14, sham 93.5, stroke 8.0): 45.0 ± 16.4 s
- Length of time spent in closed arms ([2]; Day 14, sham 252.2, stroke 241.5): 274.8 ± 9.9 s
- limb-placing test score ([3]; day 4 post-ischemia, ischemic rats 3.00±0.38, intact 14): 5.90±0.62
- limb-placing test score ([3]; day 7 post-ischemia, ischemic rats 4.46±0.40, intact 14): 7.67±0.75
